Measurements reported in patent publication US20120276186A1, “SUSTAINED RELEASE LATANOPROST IMPLANT” (priority 2011, published 2012).

Columns and labels:
[1] = solubility parameter; type: physicochemical
Source text: The solubility parameter for a substance is a numerical value which indicates the relative solvency behavior of that substance. The concept is discussed and defined in US 2008/0145403.
Latanoprost is very difficult to incorporate into biodegradable polymer matrices, because it is an oil. It has now been discovered, that this problem can be overcome by using a combination of high molecular weight PLA and PLGA polymers and fabricating the implant by melt extrusion or casting in an appropriate solvent. The oily drug substance (DS), i.e. latanoprost, helps plasticize the polymer and allows the production of a homogeneous polymer film. […] It has been determined that dichloromethane is a good solvent for PLA and PLGA, which have solubility parameters of about 21.1 MPa^0.5 and about 22.1 MPa^0.5, respectively. Thus, a solvent having a solubility parameter of from 17.1 to 26.1 MPa^0.5, preferably from 17.6 to 25.6, e.g. 21.1 or 22.1 MPa^0.5 may be used in the practice of this invention. Such solvents may include dichloromethane, isopropanol, ethanol, acetonitrile and octanol.

[2] = cited from earlier work

Q: With poly(D,L-lactide-co-glycolide) [PLGA] as the compound, how does the solubility parameter [1] read?
A: Its solubility parameter is “about 22.1 MPa^0.5”.

Q: Which solubility parameter [1] does the source give for PEG 3350 here?
A: The solubility parameter was “about 20 MPa^0.5”.

Q: Which solubility parameter [1] does the source give for `ClCCl` [dichloromethane] here?
A: Its solubility parameter is 19.8 MPa^0.5.

Q: With poly(D,L-lactide) [PLA] as the compound, how does the solubility parameter [1] read?
A: Its solubility parameter is “about 21.1 MPa^0.5”.

Q: With `CC(C)OC(=O)CCC/C=C\C[C@@H]1[C@@H](CC[C@@H](O)CCc2ccccc2)[C@H](O)C[C@@H]1O` [Latanoprost] as the compound, how does the solubility parameter [1] read?
A: Its solubility parameter is 22-24 MPa^0.5.

Q: And the “solubility in organic solvents” value ([2]; acetone, ethanol, ethyl acetate, isopropanol, methanol and octanol)?
A: Its value is “freely soluble”.

Q: What about the solubility in acetonitrile ([2]; acetonitrile) of the same compound?
A: Its solubility in acetonitrile is “very soluble”.

Q: And the solubility in water ([2]; water)?
A: Its solubility in water is “practically insoluble”.
